Data from patent US20230365571A1, “COMPOUNDS AND COMPOSITIONS AS Sppl2a INHIBITORS” (Novartis AG, priority 2020, published 2023).
pIC50: −log10 of the molar value.

What was measured:
human SPPL2a [1] = biological target: T1, human SPPL2a (Homo sapiens, UniProt Q8TCT8); assay: Sppl2a TL (translocation) imaging assay in U-2 OS cells; assay type: cell-based; design: expressed in transfected cells; details: U-2 OS cells expressing human SPPL2a and EGFP-TNFα(aa1-76) NTF substrate; 24 h
T1 sequence (Q8TCT8 26-520): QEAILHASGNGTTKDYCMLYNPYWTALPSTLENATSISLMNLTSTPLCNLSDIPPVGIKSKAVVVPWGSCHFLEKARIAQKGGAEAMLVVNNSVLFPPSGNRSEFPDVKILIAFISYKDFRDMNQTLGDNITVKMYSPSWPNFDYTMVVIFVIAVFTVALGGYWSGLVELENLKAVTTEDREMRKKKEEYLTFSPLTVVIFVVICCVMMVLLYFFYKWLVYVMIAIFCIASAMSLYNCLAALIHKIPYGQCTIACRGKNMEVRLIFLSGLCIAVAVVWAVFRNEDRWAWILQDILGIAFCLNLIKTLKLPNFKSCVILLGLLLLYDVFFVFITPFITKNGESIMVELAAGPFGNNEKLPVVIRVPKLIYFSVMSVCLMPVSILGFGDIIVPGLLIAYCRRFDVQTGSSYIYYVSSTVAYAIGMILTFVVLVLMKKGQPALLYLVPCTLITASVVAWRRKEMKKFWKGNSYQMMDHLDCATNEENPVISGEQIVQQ
Description: SPPL2a, TL in U-2 OS Cells. Stable U-2 OS cell lines expressing human SPPL2a constitutively and a EGFP-labeled TNFα(aa1-76) NTF substrate under a doxycycline-regulated promoter were used for the imaging assays. Cells were seeded at 3000 cells/30 μL/384-well in DMEM/GlutaMax™-I (Invitrogen) supplemented with tetracycline-free 10% FBS (Amimed) and incubated at 37° C., 5% CO2 for 3-4 h. Subsequently, 3.3 μL of inhibitors, prediluted in doxycycline-containing medium for 11-point concentration-response curves, were added to each well using a CyBi well liquid handling device (Cybio AG, Jena, Germany) to result in final inhibitor concentrations ranging from 100 μM to 1 nM (final DMSO concentration 0.9% (v/v)) and 5 μg/mL doxycycline). The cells were incubated with inhibitor at 37° C., 5% CO2 for 24 h. Thereafter cell were fixed in 4% PFA/PBS and in parallel, nuclei were stained with Hoechst (Invitrogen) 1:5000 in PBS for 30 min. The plates were imaged using a Cellomics ArrayScan VTI HCS reader with 10×/0.3NA objective (Thermo Fisher Scientific, USA). Six images per well were acquired. Images for the EGFP signal (Ex395, Em509) and the Hoechst nuclear dye (Ex350, Em425) were acquired simultaneously with image analysis using the “Nuclear Translocation” assay algorithm of the Cellomics ArrayScan software. Nuclei were detected based on the Hoechst staining, the nuclear mask was transferred to the EGFP channel, and a 4 pixel wide cytoplasm ring region was defined around the nucleus. The intensity of the EGFP signal was measured both in the nuclear and in the cytoplasm ring region of each individual cell (in general 800-1000 individual cells were analyzed per well), and the difference of the average nuclear versus average cytoplasmic intensity of the EGFP signal was calculated (“CircRingAvgIntenDiffCh2”=“CircAvgIntenCh2”−“RingAvgIntenCh2”). Additionally the number of cells were acquired (feature termed “ValidCellCount”) and used to calculate cell toxicity (CC50). Percent inhibition was calculated relative to the positive (0.5 μM LY-411,575=100% inhibition) and negative (DMSO=0% inhibition) controls. The IC50 value was calculated from the plot of percentage of inhibition vs inhibitor concentration using nonlinear regression analysis software, e.g., Origin (OriginLab Corp.).

human SPPL2a [2] = biological target: T1, human SPPL2a; assay: Sppl2a RGA (reporter gene assay) in HEK293 cells; assay type: cell-based; design: expressed in transfected cells; host or cells: HEK293 (transient); details: NT-TNF-VP16-Gal4 substrate, Gal4-luciferase reporter, 24 h
Excerpt: Sppl2a RGA (Reporter Gene Assay):
Sppl2a is an intramembrane aspartyl protease with similarities to presenilin, the active subunit of the γ-secretase complex. The assay is based on the coupling of the proteolytic degradation of a membrane bound synthetic substrate (VP16-Gal4 fusion protein with the N-terminal domain of TNF alpha), which migrates to the nucleus upon cleavage, with the Gal4 driven expression of luciferase. Inhibition of Sppl2a results in a reduction of nuclear VP16-Gal4 activator and therefore in a reduction of the production of luciferase. The luciferase dependent-luminescence is plotted against the concentrations of compound to generate a dose response curve, which allows the calculation of the IC50 value.
DNA vectors encoding human Sppl2a, NT-TNF-VP16-Gal4 and a Gal4-luciferase reporter were transiently transfected in HEK293 cells. In a typical experiment 5 μg plasmid for SPPL2a, 10 μg plasmid encoding the reporter Gal4-luciferase and 20 μg plasmid encoding the substrate NT-TF-VP16-Gal4 were mixed together. The DNA mixture was combined with 107 μl FuGENE® (Promega), 735 μl Opti-MEM® (Life Technologies) and incubated for 5 minutes at RT. To this mixture 20 mL of concentrated HEK293 cells were added and thoroughly mixed. The cell suspension was distributed to a white solid 384 well plate. Within 5 hours, 50 nl of compound in DMSO was stamped into the wells via pintool. The plate was incubated for 24 h at 37° C., 5% CO2 in a humidified incubator, before the addition of 25 μl Bright Glo. After incubation at RT for 5 min, the plate was transferred to a luminometer and the luminescence was measured. The IC50 was determined by plotting compound concentration vs. normalized luminescence values.

Row | SMILES | pIC50 (human SPPL2a [1]) | pIC50 (human SPPL2a [2])
1 | CC[C@H](CNC(=O)c1scnc1C(F)(F)F)C(=O)N[C@@H]1C(=O)N2CC3(CC3)CN2C(=O)c2ccccc21 [Example 57, N-((R)-2-(((S)-5,11-Dioxo-10,11-dihydro-1H,3H,5H-spiro[benzo[d]pyr-azolo[1,2-a][1,2]diazepine-2,1′-cyclopropan]-10-yl)carbamoyl)butyl)-4-(trifluoromethyl) thiazole-5-carboxamide] | 6.48 | 6.83
2 | CC[C@H](CNC(=O)c1sncc1C)C(=O)N[C@@H]1C(=O)N2CCCN2C(=O)c2ccccc21 [Example 35, N-((R)-2-(((S)-5,11-Dioxo-2,3,10,11-tetrahydro-1H,5H-benzo[d]pyrazolo [1,2-a][1,2]diazepin-10-yl)carbamoyl)butyl)-4-methylisothiazole-5-carboxamide] | 7.35 | 7.47
3 | CC(C)NC(=O)c1cc(NC(=O)C[C@H](C(=O)N[C@@H]2C(=O)N3CCCN3Cc3ccccc32)C2CC2)n(C)n1 [Example 67, (S)-2-Cyclopropyl-N^4-(3-(isopropylcarba-moyl)-1-methyl-1H-pyrazol-5-yl)-N^1-((S)-11-oxo-2,3,10,11-tetrahydro-1H,5H-benzo[d]pyrazolo [1,2-a][1,2]diazepin-10-yl)succinamide] | 8.70 | 8.30
4 | C[C@H](CC(=O)Nc1sc(-c2ccn(C)n2)nc1Cl)C(=O)N[C@@H]1C(=O)N2CCCN2Cc2ccccc21 [Example 73, (R)-N^4-(4-Chloro-2-(1-methyl-1H-pyrazol-3-yl)thiazol-5-yl)-2-methyl-N^1-((S)-11-oxo-2,3,10,11-tetrahydro-1H,5H-benzo[d]pyrazolo [1,2-a][1,2]diazepin-10-yl)succinamide] | 8.40 | 7.60
5 | C[C@H](Cc1nc2c(Cl)cccc2[nH]1)C(=O)N[C@@H]1C(=O)N2CCCN2Cc2ccccc21 [Example 115, (R)-3-(4-chloro-1H-benzo[d]imidazol-2-yl)-2-methyl-N-((S)-11-oxo-2,3,10,11-tetrahydro-1H,5H-benzo[d]pyrazolo[1,2-a][1,2]diazepin-10-yl)propanamide] | 5.40 | 6.64
6 | C[C@H](CC(=O)Nc1cc(NC(=O)C(F)(F)C(F)(F)F)nn1C)C(=O)N[C@@H]1C(=O)N2CCCN2Cc2ccccc21 [Example 70, (R)-2-Methyl-N^4-(1-methyl-3-(2,2,3,3,3-pentafluoropro-panamido)-1H-pyrazol-5-yl)-N^1-((S)-11-oxo-2,3,10,11-tetrahydro-1H,5H-benzo[d]pyrazolo [1,2-a][1,2]diazepin-10-yl)succinamide] | 8.40 | 7.89
7 | CC[C@H](CNC(=O)c1sc(-c2ccc(OC(F)F)nc2)nc1Cl)C(=O)N[C@@H]1C(=O)N2CCCN2C(=O)c2ccccc21 [Example 37, 4-Chloro-2-(6-(difluoromethoxy)pyridin-3-yl)-N-((R)-2-(((S)-5,11-dioxo-2,3,10,11-tetrahydro-1H,5H-benzo[d]pyrazolo [1,2-a][1,2]diazepin-10-yl)carbamoyl)butyl) thiazole-5-carboxamide] | 7.28 | 7.49
8 | C[C@H](CC(=O)Nc1cc(-c2cc(C3CC3)no2)nn1C)C(=O)N[C@@H]1C(=O)N2CCCN2Cc2ccccc21 [Example 71, (R)-N^4-(3-(3-Cyclopropylisoxa-zol-5-yl)-1-methyl-1H-pyrazol-5-yl)-2-methyl-N^1-((S)-11-oxo-2,3,10,11-tetrahydro-1H,5H-benzo[d]pyrazolo [1,2-a][1,2]diazepin-10-yl)succinamide] | 8.40 | 8.40
9 | C[C@H](CNC(=O)c1ccnn1C)C(=O)N[C@@H]1C(=O)N2CCCN2Cc2ccccc21 [Example 61, 1-methyl-N-((R)-2-methyl-3-oxo-3-(((S)-11-oxo-2,3,10,11-tetrahydro-1H,5H-benzo[d]pyrazolo [1,2-a][1,2]diazepin-10-yl)amino)propyl)-1H-pyrazole-5-carboxamide] | 6.16 | 6.16
10 | CC[C@H](CNC(=O)c1sc(-c2ccc(C(F)(F)F)nc2)nc1C)C(=O)N[C@@H]1C(=O)N2CCCN2Cc2ccccc21 [Example 18, 4-Methyl-N-((R)-2-(((S)-11-oxo-2,3,10,11-tetrahydro-1H,5H-benzo[d]pyrazolo [1,2-a][1,2]diazepin-10-yl)carbamoyl)butyl)-2-(6-(trifluoromethyl)pyridin-3-yl)thiazole-5-carboxamide] | 7.92 | 8.52
11 | CCc1cc(-c2cc(NC(=O)C[C@@H](C)C(=O)N[C@@H]3C(=O)N4CCCN4Cc4ccccc43)n(C)n2)on1 [Example 86, (R)-NA-(3-(3-Ethylisoxazol-5-yl)-1-methyl-1H-pyrazol-5-yl)-2-methyl-N^1-((S)-11-oxo-2,3,10,11-tetrahydro-1H,5H-benzo[d]pyrazolo [1,2-a][1,2]diazepin-10-yl)succinamide] | 8.00 | 8.40
12 | O=C(C[C@H](C(=O)N[C@@H]1C(=O)N2CCCN2C(=O)c2ccccc21)C1CC1)Nc1sc(-c2cnn(C(F)F)c2)nc1Cl [Example 104, (S)-N^4-(4-Chloro-2-(1-(difluoromethyl)-1H-pyrazol-4-yl)thiazol-5-yl)-2-cyclopropyl-N^1-((S)-5,11-dioxo-2,3,10,11-tetrahydro-1H,5H-benzo[d]pyrazolo [1,2-a][1,2]diazepin-10-yl)succinamide] | 7.77 | 7.77
13 | CC[C@H](CNC(=O)c1scnc1Cl)C(=O)N[C@@H]1C(=O)N2CCCN2Cc2ccccc21 [Example 39, 4-Chloro-N-((R)-2-(((S)-11-oxo-2,3,10,11-tetrahydro-1H,5H-benzo[d]pyrazolo [1,2-a][1,2]diazepin-10-yl)carbamoyl)butyl) thiazole-5-carboxamide] | 7.27 | 7.62
14 | Cc1cc(F)cc2nc(C[C@@H](C)C(=O)N[C@@H]3C(=O)N4CCCN4Cc4ccccc43)[nH]c12 [Example 117, (R)-3-(5-fluoro-7-methyl-1H-benzo[d]imidazol-2-yl)-2-methyl-N-((S)-11-oxo-2,3,10,11-tetrahydro-1H,5H-benzo[d]pyrazolo[1,2-a][1,2]diazepin-10-yl)propanamide] | 6.85 | 7.68
15 | C[C@H](CC(=O)Nc1cc(-c2cncc(C(F)(F)F)c2)nn1C)C(=O)N[C@@H]1C(=O)N2CCCN2Cc2ccccc21 [Example 98, (R)-2-Methyl-N^4-(1-methyl-3-(5-(trifluoromethyl)pyridin-3-yl)-1H-pyrazol-5-yl)-N^1-((S)-11-oxo-2,3,10,11-tetrahydro-1H,5H-benzo[d]pyrazolo [1,2-a][1,2]diazepin-10-yl)succinamide] | 7.85 | 8.10
